Data on seven compounds can be found in US8609708B2 (Human BioMolecular Research Institute, priority 2003, dated 2013).

For one data set, the target named is CYP3A4 (Homo sapiens (Human), UniProt P08684). Description: CYP3A4 inhibition assay (testosterone 6-hydroxylation). The procedure: (§1) To gain insight into the selectivity of the synthetic compounds, nicotine, nicotine related alkaloids and nicotine metabolites for inhibition of other CYPs, we examined the major CYP present in human liver (i.e., CYP 3A4). […] A typical incubation mixture ([…] ), 0.5 mM NADP^+, 2.0 mM G6P, 1 U of G6P dehydrogenase, […] inhibitor was added last as to minimize interaction with the protein. After mixing on ice, the reaction was initiated by the addition of substrate and incubated at 37° C. with shaking in air. Organic extracts were injected onto a Hitachi L-7100 system equipped with a Hitachi L-7400 UV detector. Separations were done with an Altex Ultrasphere ODS (4.6 mm×250 mm, 5 μm) column. The analytes were eluted with an isocratic solvent system consisting of water/acetonitrile/methanol (30:10:60, v/v/v) at a flow rate of 1.0 mL/min. […] Quantification of substrate and metabolite was determined from peak areas of the chromatogram and comparison with standard curves. IC50 values were determined as described below.
Sequence of CYP3A4 (P08684 whole entry): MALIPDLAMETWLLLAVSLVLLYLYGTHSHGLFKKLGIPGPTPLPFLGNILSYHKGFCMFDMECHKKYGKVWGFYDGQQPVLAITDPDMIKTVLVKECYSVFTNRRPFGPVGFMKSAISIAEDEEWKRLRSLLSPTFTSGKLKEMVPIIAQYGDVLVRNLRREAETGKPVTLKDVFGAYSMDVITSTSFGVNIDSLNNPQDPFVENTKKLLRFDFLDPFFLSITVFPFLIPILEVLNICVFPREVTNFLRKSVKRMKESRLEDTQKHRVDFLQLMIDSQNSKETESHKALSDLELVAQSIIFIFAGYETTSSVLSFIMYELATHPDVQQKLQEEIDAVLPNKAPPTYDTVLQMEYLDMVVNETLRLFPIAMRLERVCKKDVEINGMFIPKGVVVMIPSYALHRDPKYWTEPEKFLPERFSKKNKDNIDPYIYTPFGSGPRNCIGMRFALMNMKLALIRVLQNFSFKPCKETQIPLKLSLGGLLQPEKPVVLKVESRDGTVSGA
(§2) To measure CYP3A4 activity, testosterone 6-hydroxylation was determined.

For data set [1], the target named is CYP3A4 relative to CYP2A6 (Homo sapiens (Human), UniProt P08684). Description: in vitro. As to conditions: human; for selectivity ratio at 30 min: pH 7.5. The procedure: as §1, §2
Sequence of CYP3A4 relative to CYP2A6 (P08684 whole entry): as above
Data set [2] concerns the target T1, human CYP2A6 (Homo sapiens (Human), UniProt P11509). The data set can be described thus: CYP2A6 mediated coumarin 7-hydroxylation inhibition.
A further data set has as its target CYP2E1 (Homo sapiens (Human), UniProt P05181). The data set can be described thus: CYP2E1 Vivid blue substrate O-dealkylation inhibition. It counts as biochemical.
The target of another data set is CYP2B6 (Homo sapiens (Human), UniProt P20813). Description: CYP2B6 Vivid blue substrate O-dealkylation inhibition. It counts as biochemical.
Sequence of CYP2B6 (P20813 whole entry): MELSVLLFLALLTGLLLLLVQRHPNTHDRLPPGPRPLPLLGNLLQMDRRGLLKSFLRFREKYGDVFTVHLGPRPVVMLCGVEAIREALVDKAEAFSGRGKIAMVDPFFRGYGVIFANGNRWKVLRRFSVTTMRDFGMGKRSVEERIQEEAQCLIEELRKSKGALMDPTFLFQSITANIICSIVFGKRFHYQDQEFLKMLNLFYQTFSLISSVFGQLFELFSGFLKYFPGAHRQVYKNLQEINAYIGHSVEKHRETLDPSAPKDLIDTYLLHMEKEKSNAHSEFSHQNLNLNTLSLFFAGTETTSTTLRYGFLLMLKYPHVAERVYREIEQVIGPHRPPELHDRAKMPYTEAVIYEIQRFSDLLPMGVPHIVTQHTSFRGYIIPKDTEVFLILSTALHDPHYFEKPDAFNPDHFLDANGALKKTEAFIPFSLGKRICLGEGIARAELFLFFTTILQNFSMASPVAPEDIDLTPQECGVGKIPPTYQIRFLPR
A further data set addresses CYP2C9 (Homo sapiens (Human), UniProt P11712). Description: CYP2C9 Vivid blue substrate O-dealkylation inhibition. It counts as biochemical.
For a further data set, the target named is CYP2C19 (Homo sapiens (Human), UniProt P33261). The data set can be described thus: CYP2C19 Vivid blue substrate O-dealkylation inhibition. Format: biochemical.
Sequence of CYP2C19 (P33261 whole entry): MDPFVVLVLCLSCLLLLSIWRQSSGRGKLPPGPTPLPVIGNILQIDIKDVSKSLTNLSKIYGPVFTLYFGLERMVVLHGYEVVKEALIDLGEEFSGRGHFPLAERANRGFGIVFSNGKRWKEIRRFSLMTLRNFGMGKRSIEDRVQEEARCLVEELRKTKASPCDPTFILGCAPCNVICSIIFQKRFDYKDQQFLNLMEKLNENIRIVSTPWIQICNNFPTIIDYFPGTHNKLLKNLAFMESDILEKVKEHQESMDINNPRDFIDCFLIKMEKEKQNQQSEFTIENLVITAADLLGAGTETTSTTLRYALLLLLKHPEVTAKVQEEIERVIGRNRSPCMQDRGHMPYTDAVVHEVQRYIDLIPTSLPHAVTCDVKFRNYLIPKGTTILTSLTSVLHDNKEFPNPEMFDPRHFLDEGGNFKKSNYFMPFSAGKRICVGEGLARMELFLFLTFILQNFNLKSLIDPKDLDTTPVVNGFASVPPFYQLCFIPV
The target in a further data set is CYP2D6 (Homo sapiens (Human), UniProt P10635). Description: CYP2D6 Vivid blue substrate O-dealkylation inhibition. It counts as biochemical.
Sequence of CYP2D6 (P10635 whole entry): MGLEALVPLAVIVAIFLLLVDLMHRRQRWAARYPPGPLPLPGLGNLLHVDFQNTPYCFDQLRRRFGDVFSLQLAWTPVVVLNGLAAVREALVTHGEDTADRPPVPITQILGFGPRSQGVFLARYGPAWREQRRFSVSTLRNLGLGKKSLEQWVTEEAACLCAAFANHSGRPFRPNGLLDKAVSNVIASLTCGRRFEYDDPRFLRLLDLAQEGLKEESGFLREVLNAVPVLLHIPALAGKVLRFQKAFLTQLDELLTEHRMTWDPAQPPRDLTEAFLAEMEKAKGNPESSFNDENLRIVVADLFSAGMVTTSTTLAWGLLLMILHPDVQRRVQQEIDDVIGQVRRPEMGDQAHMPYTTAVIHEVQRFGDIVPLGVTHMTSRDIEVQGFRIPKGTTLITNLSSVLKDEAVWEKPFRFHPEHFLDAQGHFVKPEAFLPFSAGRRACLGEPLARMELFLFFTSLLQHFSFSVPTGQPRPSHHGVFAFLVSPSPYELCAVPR
In data set [3] the target is T1, human CYP2A6.
The target of data set [4] is CYP2E1 relative to CYP2A6 (Homo sapiens (Human), UniProt P05181). The data set can be described thus: CYP2E1 Vivid blue substrate O-dealkylation inhibition. Format: biochemical.
Sequence of CYP2E1 relative to CYP2A6 (P05181 whole entry): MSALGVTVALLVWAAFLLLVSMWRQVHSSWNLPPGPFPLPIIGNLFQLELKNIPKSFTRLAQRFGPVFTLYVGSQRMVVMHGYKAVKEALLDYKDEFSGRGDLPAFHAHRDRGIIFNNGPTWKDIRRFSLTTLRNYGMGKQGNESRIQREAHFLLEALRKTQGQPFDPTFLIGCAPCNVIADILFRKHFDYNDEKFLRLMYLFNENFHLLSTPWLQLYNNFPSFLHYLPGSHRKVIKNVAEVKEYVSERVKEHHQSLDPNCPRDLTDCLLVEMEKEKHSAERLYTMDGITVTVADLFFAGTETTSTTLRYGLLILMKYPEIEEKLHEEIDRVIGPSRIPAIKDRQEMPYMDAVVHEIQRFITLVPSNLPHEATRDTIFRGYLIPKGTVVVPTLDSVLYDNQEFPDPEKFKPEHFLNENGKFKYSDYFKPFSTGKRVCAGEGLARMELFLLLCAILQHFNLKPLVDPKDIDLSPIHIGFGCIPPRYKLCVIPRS
Data set [5] has as its target CYP2B6 relative to CYP2A6 (Homo sapiens (Human), UniProt P20813). Description: CYP2B6 Vivid blue substrate O-dealkylation inhibition. Format: biochemical. As to conditions: recombinant CYP2B6 BACULOSOMES, pH 8, probe Vivid blue substrate (5 μM), O-dealkylation.
For data set [6], the target named is CYP2C9 relative to CYP2A6 (Homo sapiens (Human), UniProt P11712). The data set can be described thus: CYP2C9 Vivid blue substrate O-dealkylation inhibition. It counts as biochemical. As to conditions: for selectivity ratio: human; for selectivity ratio at 40 min: recombinant CYP2C9 BACULOSOMES, pH 8, probe Vivid blue substrate (10 μM), O-dealkylation, human CYP2C9 versus human CYP2A6, read-out: Selectivity ratio (IC50 CYPX/IC50 CYP2A6) 2C9/2A6.
Sequence of CYP2C9 relative to CYP2A6 (P11712 whole entry): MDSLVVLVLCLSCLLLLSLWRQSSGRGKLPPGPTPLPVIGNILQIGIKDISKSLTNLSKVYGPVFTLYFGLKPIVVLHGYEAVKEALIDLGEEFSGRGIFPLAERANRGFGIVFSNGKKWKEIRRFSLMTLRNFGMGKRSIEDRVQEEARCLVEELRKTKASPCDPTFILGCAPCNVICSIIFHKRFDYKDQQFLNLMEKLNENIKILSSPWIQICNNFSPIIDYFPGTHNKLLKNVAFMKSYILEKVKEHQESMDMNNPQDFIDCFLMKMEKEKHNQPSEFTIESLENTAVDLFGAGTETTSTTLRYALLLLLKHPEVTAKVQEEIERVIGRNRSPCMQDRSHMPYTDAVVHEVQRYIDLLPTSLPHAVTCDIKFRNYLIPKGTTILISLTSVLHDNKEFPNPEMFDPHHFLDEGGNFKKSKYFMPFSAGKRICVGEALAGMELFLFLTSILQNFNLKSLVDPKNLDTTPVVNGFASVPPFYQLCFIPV

Data set [7] addresses CYP2C19 relative to CYP2A6 (Homo sapiens (Human), UniProt P33261). Description: CYP2C19 Vivid blue substrate O-dealkylation inhibition. Format: biochemical. As to conditions: recombinant CYP2C19 BACULOSOMES, pH 8, probe Vivid blue substrate (10 μM), O-dealkylation.
The target in data set [8] is CYP2D6 relative to CYP2A6 (Homo sapiens (Human), UniProt P10635). Description: CYP2D6 Vivid blue substrate O-dealkylation inhibition. The conditions noted are these: recombinant CYP2D6 BACULOSOMES, pH 8, probe Vivid blue substrate (10 μM), O-dealkylation. Format: biochemical.
Sequence of CYP2D6 relative to CYP2A6 (P10635 whole entry): as the sequence (P10635 whole entry) above
The nature of data set [9]: Mouse liver microsome stability assay. The conditions noted are these: mouse liver microsomes, 40 μM test compound.
Protocol: The residue was reconstituted in methanol (200 μL), centrifuged at 13,000 rpm for 5 min and the supernatant was analyzed by high-performance liquid chromatography with an Axxi-chrom (straight-phase) silica column (4.6 mm×250 mm, 5 μm) or with a Supelco (reverse-phase) HS F5 pentafluorophenyl column (4.6 mm×250 mm, 5 μm).
The next data set addresses P450 2A6dH (Homo sapiens (Human), UniProt P11509, INS494HHHH). The data set can be described thus: Difference spectra of test compounds with N-terminal truncated CYP2A6. The conditions noted are these: difference spectrum with truncated CYP2A6.
[10] abbreviates: read-out: CYP3A4 IC50, testosterone 6-hydroxylation.
The mark [11] stands for this setting: insect cell microsomes expressing CYP2E1, 0.2M potassium phosphate buffer, mean of at least 3 determinations ± SD, read-out: IC50 ± SD 2E1.
[12] abbreviates: recombinant CYP2E1 BACULOSOMES, pH 8, probe Vivid blue substrate (10 μM), O-dealkylation, human CYP2E1 versus human CYP2A6, read-out: Selectivity ratio (IC50 CYPX/IC50 CYP2A6) 2E1/2A6.
Where [13] appears, read: insect cell microsomes expressing CYP2B6, 0.2M potassium phosphate buffer, mean of at least 3 determinations ± SD, read-out: IC50 ± SD 2B6.
The mark [14] stands for this setting: insect cell microsomes expressing CYP2C19, 0.2M potassium phosphate buffer, mean of at least 3 determinations ± SD, read-out: IC50 ± SD 2C19.
[15] abbreviates: insect cell microsomes expressing CYP2D6, 0.2M potassium phosphate buffer, mean of at least 3 determinations ± SD, read-out: IC50 ± SD 2D6.
Setting [16] is: coumarin 7-hydroxylation, apparent Ki from IC50 by Cheng-Prusoff.
The mark [17] stands for this setting: read-out: IC50 ± SD 2A6, insect cell microsomes expressing CYP2A6, 0.1M Tris buffer, mean of at least 3 determinations ± SD.
The mark [18] stands for this setting: human CYP2B6 versus human CYP2A6, read-out: Selectivity ratio (IC50 CYPX/IC50 CYP2A6) 2B6/2A6.
The mark [19] stands for this setting: insect cell microsomes expressing CYP2C9, 0.2M potassium phosphate buffer, mean of at least 3 determinations ± SD, read-out: IC50 ± SD 2C9.
Setting [20] is: human CYP2C19 versus human CYP2A6, read-out: Selectivity ratio (IC50 CYPX/IC50 CYP2A6) 2C19/2A6.
Setting [21] is: human CYP2D6 versus human CYP2A6, read-out: Selectivity ratio (IC50 CYPX/IC50 CYP2A6) 2D6/2A6.

Read-outs that look alike come from different tables or passages of the source.

Sequence of CYP2C9 (P11712 whole entry): as the sequence (P11712 whole entry) above
Sequence of CYP2E1 (P05181 whole entry): as the sequence (P05181 whole entry) above
T1 sequence (P11509 whole entry): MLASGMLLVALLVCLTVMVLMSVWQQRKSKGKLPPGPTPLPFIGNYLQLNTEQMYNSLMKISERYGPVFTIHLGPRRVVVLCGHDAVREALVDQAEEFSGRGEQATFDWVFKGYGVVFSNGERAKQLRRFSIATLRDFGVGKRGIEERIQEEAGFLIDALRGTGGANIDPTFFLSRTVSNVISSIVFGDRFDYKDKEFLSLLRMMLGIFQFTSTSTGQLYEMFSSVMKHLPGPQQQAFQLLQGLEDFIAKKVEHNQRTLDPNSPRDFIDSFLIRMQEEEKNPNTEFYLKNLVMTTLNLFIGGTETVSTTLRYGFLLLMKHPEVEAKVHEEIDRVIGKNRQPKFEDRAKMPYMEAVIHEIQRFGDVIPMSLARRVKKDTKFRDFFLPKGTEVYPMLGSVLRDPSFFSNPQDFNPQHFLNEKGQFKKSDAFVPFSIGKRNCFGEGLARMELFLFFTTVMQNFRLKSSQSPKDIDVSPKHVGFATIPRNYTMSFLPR
Sequence of CYP2C19 relative to CYP2A6 (P33261 whole entry): as the sequence (P33261 whole entry) above
Sequence of CYP2B6 relative to CYP2A6 (P20813 whole entry): as the sequence (P20813 whole entry) above
Protocol for P450 2A6dH: Subsequently, test compound (in 100% ethanol, 10 μM) was added to both the cuvettes. The maximal ethanol concentration used was 2%. The difference spectra were obtained after the system reached equilibrium (3 min). All spectra were recorded at 25° C.

In general, IC50 refers to the concentration that gives 50% inhibition. For the compound `Cc1ccc(-c2cccnc2)nc1` [Compound 46], the half-maximal inhibitory concentration (IC50) on CYP3A4 (setting [10]) amounted to 84.2 ± 19.5 µM; on human CYP2A6 [2] (read-out: CYP2A6 IC50, coumarin 7-hydroxylation) it was 16.5 ± 3.8 µM. The selectivity ratio in [1] (pH 7.5, Selectivity Ratio: IC50 (Inhibition of CYP3A4)/IC50 (Inhibition of CYP2A6), Table 1) came to 5.

For `CC(=O)c1ccc(-c2cccnc2)s1` [Compound 36], the selectivity ratio at 30 min in data set [1] worked out at 3. For the same compound, the “Selectivity ratio (IC50 CYPX/IC50 CYP2A6) 2E1/2A6” value on CYP2E1 (human CYP2E1 versus human CYP2A6) is recorded as 3. Moreover, the “Selectivity ratio (IC50 CYPX/IC50 CYP2A6) 2B6/2A6” value on CYP2B6 (human CYP2B6 versus human CYP2A6) is reported as 153. Besides, the “Selectivity ratio (IC50 CYPX/IC50 CYP2A6) 2C9/2A6” value on CYP2C9 (human CYP2C9 versus human CYP2A6) is 159. Moreover, the “Selectivity ratio (IC50 CYPX/IC50 CYP2A6) 2C19/2A6” value at CYP2C19 (human CYP2C19 versus human CYP2A6) came to 27. Besides, at CYP2D6 (human CYP2D6 versus human CYP2A6), the “Selectivity ratio (IC50 CYPX/IC50 CYP2A6) 2D6/2A6” value was 136. Besides, at human CYP2A6 [3] (human, pH 7.5), the midpoint of inhibition, the IC50, lay at 8.61 ± 1.33 µM and the “fold decrease of CYP2A6 inhibitor potency” value is 12 fold.

For `c1cncc(-c2ccc(CNCc3ccc(-c4cccnc4)s3)s2)c1` [Compound 38b, bis((5-(pyridin-3-yl)thiophen-2-yl)methyl)amine], in data set [1], the selectivity ratio at 30 min is more than 54. Also, the IC50 at CYP2E1 (setting [11]) was 0.86 ± 0.24 µM; on CYP2B6 (setting [13]) it was 9 ± 0.8 µM; against CYP2C9 (human, pH 8), 0.71 ± 0.75 µM; at CYP2C19 (setting [14]) it was 0.21 ± 0.03 µM; at CYP2D6 (setting [15]) it was 12.9 ± 1.9 µM; on human CYP2A6 [2] (setting [17]) it was 7.4 ± 1.3 µM. Also, the selectivity ratio at 40 min in data set [4] (setting [12]) is 0.12; in data set [5] (human, read-out: 2B6/2A6 selectivity ratio (IC50 CYPX/IC50 CYP2A6)), 1.2; in data set [7] (human, read-out: 2C19/2A6 selectivity ratio (IC50 CYPX/IC50 CYP2A6)), 0.03; in data set [8] (human, read-out: 2D6/2A6 selectivity ratio (IC50 CYPX/IC50 CYP2A6)), 1.7. Also, the selectivity ratio in data set [6] (pH 8, 2C9/2A6 selectivity ratio (IC50 CYPX/IC50 CYP2A6)) was 0.1; in data set [6] (pH 8, Selectivity ratio (IC50 CYPX/IC50 CYP2A6) 2C9/2A6), 0.1. The Ki at human CYP2A6 [2] (setting [16]) amounted to 1.2 ± 0.2 µM. Also, on human CYP2A6 [2] (relative to compound 38a), the “fold decrease of CYP2A6 inhibitor potency” value was determined as 60 fold.

In the case of `Nc1ccc(-c2cccnc2)s1` [Compound 57, 5-(Pyridin-3-yl)thiophen-2-amine], the IC50 worked out at 6.3 ± 1.4 µM on CYP3A4 (read-out: IC50 ± SD 3A4, human liver microsomes, 0.05M potassium phosphate buffer, pH 7.5, mean of at least 3 determinations ± SD); 31.1 ± 5.7 µM on CYP2E1 (setting [11]); 6.8 ± 0.8 µM at CYP2B6 (setting [13]); 2.1 ± 0.2 µM at CYP2C9 (setting [19]); 3.2 ± 0.2 µM at CYP2C19 (setting [14]); 14.4 ± 0.9 µM on CYP2D6 (setting [15]). Further, the IC50 at human CYP2A6 [2] (setting [17]) worked out at 3.5 ± 0.3 µM. Further, the selectivity ratio in [1] (pH 7.5, 3A4/2A6 selectivity ratio (IC50 CYPX/IC50 CYP2A6)) stood at 2; in data set [1] (pH 7.5, Selectivity ratio (IC50 CYPX/IC50 CYP2A6) 3A4/2A6), 2. Also, the selectivity ratio at 40 min in [4] (setting [12]) was 8.9; in data set [5] (setting [18]), 1.9; in data set [6], 0.6; in data set [7] (setting [20]) it was 0.9; in data set [8] (setting [21]), 4.1. Also, the Ki at human CYP2A6 [2] (setting [16]) was found to be 0.59 ± 0.05 µM; on human CYP2A6 [2] (coumarin 7-hydroxylation, unit inferred), 0.59 ± 0.05 µM.

Consider `c1ccc(Cn2cnc(-c3cccnc3)c2)cc1` [Compound 60, 3-(1-benzyl-1H-imidazol-4-yl)pyridine], for which the IC50 against CYP3A4 (microsomes, pH 7.5) came to 75.1 ± 13.9 µM; at CYP2E1 (setting [11]), 0.58 ± 0.1 µM; at CYP2B6 (setting [13]) it was 5.3 ± 0.9 µM; on CYP2C9 (setting [19]) it was 26.9 ± 2.9 µM; at CYP2C19 (setting [14]), 12.1 ± 0.6 µM; at CYP2D6 (setting [15]), 36.3 ± 4.4 µM. On human CYP2A6 [2] (setting [17]), the IC50 is 1.4 ± 0.2 µM. Besides, the selectivity ratio at 30 min in [1] was more than 54. In addition, the selectivity ratio at 40 min was determined as 0.4 in data set [4] (human, pH 8); 4 in data set [5] (setting [18]); 19 in data set [6]; 9 in data set [7] (setting [20]); 26 in data set [8] (setting [21]). Further, the Ki at human CYP2A6 [2] (setting [16]) came out at 0.23 ± 0.03 µM.

As to `CN(C)Cc1ccc(-c2cccnc2)o1` [Compound 2c], the half-maximal inhibitory concentration (IC50) at CYP3A4 is 294 ± 25 µM; on CYP2E1 (Table 4, unit inferred, read-out: 2E1 IC50 ± SD), more than 400 µM; at CYP2B6 (Table 4, unit inferred, read-out: 2B6 IC50 ± SD) it was more than 400 µM; on CYP2C9 (Table 4, unit inferred, read-out: 2C9 IC50 ± SD), 222 ± 16 µM; on CYP2C19 (Table 4, unit inferred, read-out: 2C19 IC50 ± SD) it was 157 ± 10 µM; on CYP2D6 (Table 4, unit inferred, read-out: 2D6 IC50 ± SD) it was 253 ± 35 µM. Moreover, in data set [9], the “MLM t1/2” value is listed as “Stable^a”. Also, the binding type entry at P450 2A6dH was “Type II”.

`Nc1ccc(-c2cccnc2)s1` [Compound 21]: the IC50 at CYP3A4 (setting [10]) was found to be 1.59 ± 1.63 µM; on human CYP2A6 [3], 3.51 ± 0.28 µM. The selectivity ratio in [1] (pH 7.5, Selectivity Ratio: IC50 (Inhibition of CYP3A4)/IC50 (Inhibition of CYP2A6)) was determined as 0.45.
